Laboratory results: US11166907B2, “Non-covalently assembled conductive hydrogel” (DENOVOMATRIX GMBH, priority 2017, dated 2021)

Experiments:
[1] = Drug encapsulation and release from conductive hydrogels; format: physicochemical
Protocol: Because the networks of PEG-peptide/PEDOT:PSS hydrogel and the PEG-peptide/rGO:PEDOT:PSS hydrogels are amphipathic, they can bind to both hydrophobic and charged hydrophilic compounds. The encapsulation of hydrophilic and hydrophobic drug compounds was tested. PEDOT:PSS was premixed with either hydrophilic compound doxorubicin or hydrophobic compound paclitaxel, followed by adding 5 kD-PEG-KA7. […] Doxorubicin can be encapsulated with a concentration of 0.8 mg/mL, while 0.1 mg/mL paclitaxel can be encapsulated into the hydrogel. Paclitaxel in excess formed precipitate at the bottom. rGO:PEDOT:PSS was premixed with either doxorubicin or paclitaxel, followed by adding starPEG-KA7. […] Doxorubicin can be encapsulated with a concentration as high as 0.8 mg/mL, while 1.0 mg/mL paclitaxel can be encapsulated into the hydrogel. The hydrogels loaded with drugs were then incubated in PBS, and the release of drugs was monitored.

HeLa cells = experiment: Cytotoxic effect of drug released from drug-encapsulating hydrogels; format: cell-based; details: drug released from rGO:PEDOT:PSS/starPEG-KA7 hydrogels, diluted 10× or 100×
Protocol: The released compounds were diluted 10× or 100× times for the treatment.

[2] = Electrochemical properties (cyclic voltammetry, impendency); format: physicochemical
From the text: The cyclic voltammetry (CV) curve of 5 kD-PEG-KA7/PEDOT:PSS is typical of PEDOT:PSS-based materials, showing the oxidation peak between +500 mV and +650 mV and reduction occurring between −100 mV and −50 mV (FIG. 3A). The structure-function relationship between chemical composition of the modular system and electrochemical properties was investigated

[3] = Hydrogel formation by mixing PEG-peptide conjugate with anionic polymer; format: physicochemical; details: (BX)n oligopeptide coupled to PEG-5 k (FIG. 1B)
Protocol: 14-kD-heparin ([…], 2.5 mM) and star-PEG-peptide conjugates (6.25 mM, 3.125 mM) were dissolved in physiologic phosphate buffer solution (1×PBS) water or cell culture medium with 2% fetal bovine serum (FBS). These solutions were dissolved in a ratio of 1:4 heparin:star-PEG-peptide-conjugate by obtaining 0.5 mM or 5 mM 14-kD-heparin and 2.5 mM or 5 mM star-PEG-peptide. The ligand/mol ratio was 2:1, 1:1 and 1:5 relative to the mol ratio of 14-kD-heparin and the star-PEG-peptide-conjugate. The mixtures were incubated within a time frame of one hour to overnight at room temperature […]. The gelling time spanned from present up to several hours depending on the applied peptide motif. A hydrogel was formed when it survived the addition of physiological phosphate buffer solution (1×PBS) pH 7.4 to the mixture after the incubation of the mixture over the prior night without mixing with the added solution.
L1-(BX)n peptides comprising a (BX)n peptide selected from KA7, KA5, KA3, KS7, KG7, RA7, and RG7, where X is alanine, glycine or serine (FIG. 1B), were synthesized. The thiol group of cysteine was used to link the peptides to maleimide-functionalized PEG by Michael-type addition reaction, while the tryptophan was used to facilitate the monitoring during HPLC purification and quantification (supporting information). It was first tested whether sulfated oligosaccharide could be replaced by PEDOT:PSS to form a stable hydrogel. starPEG-KA7 in PBS was mixed with PEDOT:PSS aqueous solution to final concentrations of 2.5 mM and 1%, respectively. […] Without conjugation to the oligopeptide, neither maleimide-functionalized nor amino-functionalized PEG formed a hydrogel with PEDOT:PSS.
Moreover, it is much easier to separate a linear PEG chain with two peptides from that with only one peptide, as compared to purify the starPEG with 4 peptides from a mixture of lower degree of modification. Therefore, in the following study, the hydrogel formation using linear PEG-peptides was investigated. […] To incorporate a cell adhesive motiv into the modular network, the RGDSP (SEQ ID NO: 25) sequence was added as part of the linker to the KA7 oligopeptide. […] L2 contains the RGDSP (SEQ ID NO: 25) sequence.
To test whether the non-covalent assembling approach can also be applied to other conductive polymers, the hydrogel formation using PEG-peptide or starPEG-peptide with graphene derivatives was investigated. While graphene has very poor water solubility, graphene oxide (GO) was used. […] Apparently, the carboxylic acid presented on graphene is not sufficient to form stable crosslinking with positively charged peptide-polymer.
Reducing GO in the present of PSS also led to water-soluble and conductive material rGO/PSS. Hydrogel formation using rGO:PSS or rGO:PEDOT:PSS (FIG. 5A) was tested. […]

[4] = 5 kD-PEG-KA7/PEDOT:PSS hydrogel
[5] = rGO:PEDOT:PSS/starPEG-KA7 hydrogel
[6] = the hydrogel (description, type not specified)

Compound: COc1cccc2c1C(=O)c1c(O)c3c(c(O)c1C2=O)C[C@@](O)(C(=O)CO)C[C@@H]3O[C@H]1C[C@H](N)[C@H](O)[C@H](C)O1 [Doxorubicin, doxorubicin]
- concentration that can be encapsulated [1, 4]: 800 µg/mL
- concentration that can be encapsulated [1, 5]: 800 µg/mL
- concentration that can be encapsulated [1, 6]: 800 µg/mL
- effect on HeLa cells (HeLa cells): cytotoxic effect

Compound: CC(=O)O[C@H]1C(=O)[C@@]2(C)[C@H]([C@H](OC(=O)c3ccccc3)[C@]3(O)C[C@H](OC(=O)[C@H](O)[C@@H](NC(=O)c4ccccc4)c4ccccc4)C(C)=C1C3(C)C)[C@]1(OC(C)=O)CO[C@@H]1C[C@@H]2O [paclitaxel]
- concentration that can be encapsulated [1, 4]: 100 µg/mL
- concentration that can be encapsulated [1, 5]: 1000 µg/mL
- concentration that can be encapsulated [1, 6]: 1000 µg/mL
- effect on HeLa cells (HeLa cells): cytotoxic effect

Compound: CWGGRGDSP [L2, 14]
- change of impendency / conductivity compared to 5 kD-PEG-KA7/PEDOT:PSS ([2]; alanine replaced by serine, or RGDSP added within linker): minor effect on the conductivity

Compound: KAKAKAKAKA [KA5]
- hydrogel formation with PEDOT:PSS [3]: formed homogeneous hydrogels

Compound: KAKAKAKAKAKAKA [KA7]
- hydrogel formation with PEDOT:PSS [3]: formed homogeneous hydrogels

Compound: KSKSKSKSKSKSKS [KS7]
- hydrogel formation with PEDOT:PSS [3]: formed homogeneous hydrogels

Compound: RARARARARARARA [RA7]
- hydrogel formation with PEDOT:PSS [3]: formed homogeneous hydrogels

Compound: heparin
- effect on conductivity of hydrogel ([2]; 1 mM heparin in hydrogel of 1% PEDOT:PSS and 2.5 mM starPEG-KA7, versus 1% PEDOT:PSS and 2.5 mM 5 kD-PEG-KA7): enhanced the conductivity
